The text below walks through data of patent US8802597B2, “Herbicidal pyrimidines” (E I du Pont de Nemours and Company, priority 2003, dated 2014).

Like-named read-outs stand apart in the source and are kept apart here.

Holding throughout (assay): Test C pre/postemergence
Common to all, as to type: in vivo

In test [1] the test system is crabgrass (Digitaria sanguinalis). The essentials: (§1)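 Injury scored visually 12–14 days after application on 0–100 scale (100 = complete control), relative to controls. Compounds, formulated with surfactant in non-phytotoxic solvent, applied to soil at planting (pre) or to 1- to 4-leaf plants 2–18 cm tall (post) in greenhouse.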
For a further test, the system named is soybean (Glycine max). A digest of the protocol: as §1
For test [2], the system named is yellow nutsedge (Cyperus esculentus). A digest of the protocol:
as §1

[3] abbreviates: Preemergence, 31 g ai/ha, scale 0 to 100, 0 no effect, 100 complete control.
Setting [4] is: Preemergence, 62 g ai/ha, scale 0 to 100, 0 no effect, 100 complete control.
The mark [5] stands for this setting: Preemergence, 125 g ai/ha, scale 0 to 100.
Setting [6] is: Preemergence, 250 g ai/ha, scale 0 to 100.
Where [7] appears, read: Preemergence, 500 g ai/ha, scale 0 to 100.
[8] abbreviates: Preemergence, 16 g ai/ha, scale 0 to 100, 0 no effect, 100 complete control.
Where [9] appears, read: Postemergence, 125 g ai/ha, scale 0 to 100 (0 no effect, 100 complete control).
Where [10] appears, read: Postemergence, 62 g ai/ha, scale 0 to 100 (0 no effect, 100 complete control).
The mark [11] stands for this setting: Postemergence, 250 g ai/ha, scale 0 to 100.
Setting [12] is: Postemergence, 500 g ai/ha, scale 0 to 100.

With `CCOC(=O)Cc1nc(C2CC2)nc(N)c1Br` [Compound 12], the “Plant response rating, Crabgrass” value in test [1] (setting [3]), in test [1] (setting [4]), in test [1] (setting [5]) and in test [1] (setting [6]) was 0 in each case. For the same molecule, the “Plant response rating, Soybean” value is reported as 50 in the test with soybean (Glycine max) (setting [4]) and 70 with soybean (Glycine max) (setting [6]). The “Plant response rating, Nutsedge, Yellow” value in test [2] (setting [3]), in test [2] (setting [4]), in test [2] (setting [5]) and in test [2] (setting [6]) was 0 throughout.

For `CCOC(=O)C(Cl)c1nc(C2CC2)nc(N)c1Br` (stereo not drawn) [Compound 31], the “Plant response rating, Crabgrass” value in test [1] (setting [3]), in test [1] (setting [4]), in test [1] (setting [5]) and in test [1] (setting [6]) was 0 throughout. In addition, the “Plant response rating, Soybean” value was 0 in the test with soybean (Glycine max) (setting [3]), 5 in the test on soybean (Glycine max) (setting [4]), 15 in the test on soybean (Glycine max) (setting [5]) and 80 with soybean (Glycine max) (setting [6]). Also, the “Plant response rating, Nutsedge, Yellow” value in test [2] (setting [3]), in test [2] (setting [4]), in test [2] (setting [5]) and in test [2] (setting [6]) was 0 each time.

With `CCOC(=O)c1nc(C2CC2)nc(N=CN(C)C)c1Br` [Compound 40], the figures for the “Plant response rating, Crabgrass” value in test [1] (setting [4]) and in test [1] (setting [7]) were 5 and 100, respectively. Further, the “Plant response rating, Soybean” value is listed as 10 in the test with soybean (Glycine max) (setting [4]), 40 in the test on soybean (Glycine max) (setting [5]), 90 with soybean (Glycine max) (setting [6]) and 95 in the test with soybean (Glycine max) (setting [7]). In addition, the “Plant response rating, Nutsedge, Yellow” value in test [2] (setting [4]), in test [2] (setting [5]), in test [2] (setting [6]) and in test [2] (setting [7]) was 0 each time.

In the case of `COC(=O)Cc1nc(C2CC2)nc(N)c1Br` [Compound 13], the “Plant response rating, Crabgrass” value in test [1] (setting [3]), in test [1] (setting [4]), in test [1] (setting [5]) and in test [1] (setting [6]) was 0 in each case. The “Plant response rating, Soybean” value is 0 with soybean (Glycine max) (setting [3]), 60 in the test with soybean (Glycine max) (setting [4]), 90 with soybean (Glycine max) (setting [5]) and 90 in the test with soybean (Glycine max) (setting [6]). Besides, the “Plant response rating, Nutsedge, Yellow” value in test [2] (setting [3]), in test [2] (setting [4]), in test [2] (setting [5]) and in test [2] (setting [6]) was 0 in each case.

For `Nc1nc(C2CC2)nc(C(=O)[O-])c1Cl.[Na+]` [Compound 77, 6-amino-5-chloro-2-cyclopropyl-4-pyrimidinecarboxylic acid monosodium salt], the pest or weed control at 31 g/ha amounted to 0% in test [1] (Digitaria sanguinalis, pre-emergence, Preemergence, 31 g ai/ha, scale 0 to 100, 0 no effect, 100 complete control, read-out: Plant response rating, Crabgrass) and 0% in test [2] (Cyperus, pre-emergence, Preemergence, 31 g ai/ha, scale 0 to 100, 0 no effect, 100 complete control, read-out: Plant response rating, Nutsedge, Yellow). Besides, the pest or weed control at 62 g/ha worked out at 0% in test [1] (Digitaria sanguinalis, pre-emergence, Preemergence, 62 g ai/ha, scale 0 to 100, 0 no effect, 100 complete control, read-out: Plant response rating, Crabgrass) and 0% in test [2] (Cyperus, pre-emergence, Preemergence, 62 g ai/ha, scale 0 to 100, 0 no effect, 100 complete control, read-out: Plant response rating, Nutsedge, Yellow). The “Plant response rating, Crabgrass” value in test [1] (setting [8]) and in test [1] (setting [5]) was 0 throughout. The plant injury at 31 g/ha with soybean (Glycine max) (Glycine max, pre-emergence, Preemergence, 31 g ai/ha, scale 0 to 100, 0 no effect, 100 complete control, read-out: Plant response rating, Soybean) was 100%. The plant injury at 62 g/ha with soybean (Glycine max) (Glycine max, pre-emergence, Preemergence, 62 g ai/ha, scale 0 to 100, 0 no effect, 100 complete control, read-out: Plant response rating, Soybean) was found to be 100%. The “Plant response rating, Soybean” value in the test on soybean (Glycine max) (setting [8]) is given as 40. Also, the “Plant response rating, Nutsedge, Yellow” value in test [2] (setting [8]) worked out at 0.

With `Nc1nc(C2CC2)nc(C(=O)O)c1Cl` [Compound 135, 6-amino-5-chloro-2-cyclopropyl-4-pyrimidinecarboxylic acid], the pest or weed control at 16 g/ha is 65% in test [1] (Digitaria sanguinalis, post-emergence, Postemergence, 16 g ai/ha, read-out: Plant response rating (scale of 0 to 100), Crabgrass); 0% in test [1] (Digitaria sanguinalis, pre-emergence, Preemergence, 16 g ai/ha, scale 0 to 100, 0 no effect, 100 complete control, read-out: Plant response rating, Crabgrass); 0% in test [2] (Cyperus, post-emergence, Postemergence, 16 g ai/ha, read-out: Plant response rating (scale of 0 to 100), Nutsedge, Yellow); 0% in test [2] (Cyperus, pre-emergence, Preemergence, 16 g ai/ha, scale 0 to 100, 0 no effect, 100 complete control, read-out: Plant response rating, Nutsedge, Yellow). Also, the pest or weed control at 31 g/ha in test [1] (Digitaria sanguinalis, post-emergence, Postemergence, 31 g ai/ha, read-out: Plant response rating (scale of 0 to 100), Crabgrass) came to 75%; in test [2] (Cyperus, post-emergence, Postemergence, 31 g ai/ha, read-out: Plant response rating (scale of 0 to 100), Nutsedge, Yellow) it was 0%. Also, the pest or weed control at 62 g/ha was 75% in test [1] (Digitaria sanguinalis, post-emergence, Postemergence, 62 g ai/ha, read-out: Plant response rating (scale of 0 to 100), Crabgrass) and 15% in test [2] (Cyperus, post-emergence, Postemergence, 62 g ai/ha, read-out: Plant response rating (scale of 0 to 100), Nutsedge, Yellow). For the same molecule, the pest or weed control at 125 g/ha is 75% in test [1] (Digitaria sanguinalis, post-emergence, Postemergence, 125 g ai/ha, scale 0 to 100 (0 no effect, 100 complete control), read-out: Crabgrass plant response rating) and 40% in test [2] (Cyperus, post-emergence, Postemergence, 125 g ai/ha, scale 0 to 100 (0 no effect, 100 complete control), read-out: Nutsedge, Yellow plant response rating). Further, the “Plant response rating, Crabgrass” value in test [1] (setting [3]) is on record as 0; in test [1] (setting [4]), 0; in test [1] (setting [5]) it was 5. Further, the plant injury at 16 g/ha in the test on soybean (Glycine max) (Glycine max, post-emergence, Postemergence, 16 g ai/ha, read-out: Plant response rating (scale of 0 to 100), Soybean) worked out at 100%. In the test with soybean (Glycine max) (Glycine max, post-emergence, Postemergence, 62 g ai/ha, read-out: Plant response rating (scale of 0 to 100), Soybean), the plant injury at 62 g/ha came out at 100%. Moreover, the plant injury at 125 g/ha in the test on soybean (Glycine max) (Glycine max, post-emergence, Postemergence, 125 g ai/ha, scale 0 to 100 (0 no effect, 100 complete control), read-out: Soybean plant response rating) was 100%. In addition, the entries for the “Plant response rating, Soybean” value in the test on soybean (Glycine max) (setting [8]), in the test on soybean (Glycine max) (setting [3]) and in the test with soybean (Glycine max) (setting [4]) were 85, 95 and 95, respectively. The “Plant response rating, Nutsedge, Yellow” value in test [2] (setting [3]) and in test [2] (setting [4]) was 0 each time.

`COC(=O)c1nc(-c2ccc(Cl)cc2)nc(N)c1Br` [Compound 83]: the “Plant response rating (scale of 0 to 100), Crabgrass” value in test [1] (Postemergence, 16 g ai/ha) is recorded as 25; in test [1] (Postemergence, 31 g ai/ha), 45; in test [1] (Postemergence, 62 g ai/ha) it was 65. Moreover, the “Crabgrass plant response rating” value in test [1] (setting [9]) was found to be 75. Besides, the “Plant response rating (scale of 0 to 100), Soybean” value is recorded as 85 with soybean (Glycine max) (Postemergence, 16 g ai/ha); 90 in the test with soybean (Glycine max) (Postemergence, 31 g ai/ha); 100 in the test with soybean (Glycine max) (Postemergence, 62 g ai/ha). In addition, the “Soybean plant response rating” value in the test on soybean (Glycine max) (setting [9]) amounted to 100. Further, the “Plant response rating (scale of 0 to 100), Nutsedge, Yellow” value in test [2] (Postemergence, 16 g ai/ha) turned out to be 60; in test [2] (Postemergence, 31 g ai/ha) it was 60; in test [2] (Postemergence, 62 g ai/ha), 60. The “Nutsedge, Yellow plant response rating” value in test [2] (setting [9]) came to 75.

For the molecule `CC(=O)NN=Cc1nc(C2CC2)nc(N)c1Br` [Compound 51], the “Crabgrass plant response rating” value in test [1] (setting [10]) and in test [1] (setting [9]) was 0 throughout. In addition, the results for the “Plant response rating, Crabgrass” value in test [1] (setting [11]) and in test [1] (setting [12]) were 0 and 45, respectively. The “Soybean plant response rating” value in the test with soybean (Glycine max) (setting [10]) was 75; with soybean (Glycine max) (setting [9]) it was 95. Moreover, the “Plant response rating, Soybean” value with soybean (Glycine max) (setting [11]) and with soybean (Glycine max) (setting [12]) was 95 in each case. The “Nutsedge, Yellow plant response rating” value in test [2] (setting [10]) and in test [2] (setting [9]) was 0 in each case. Also, the “Plant response rating, Nutsedge, Yellow” value in test [2] (setting [11]) and in test [2] (setting [12]) was 0 throughout.

In the case of `CN(C)N=Cc1nc(C2CC2)nc(N)c1Br` [Compound 50], the “Crabgrass plant response rating” value in test [1] (setting [10]) and in test [1] (setting [9]) was 60 each time. The “Plant response rating, Crabgrass” value was found to be 75 in test [1] (setting [11]); 80 in test [1] (setting [12]); 90 in test [1] (setting [4]); 90 in test [1] (setting [5]); 95 in test [1] (setting [6]); 95 in test [1] (setting [7]). In addition, the “Soybean plant response rating” value with soybean (Glycine max) (setting [10]) and with soybean (Glycine max) (setting [9]) was 95 throughout. In addition, the “Plant response rating, Soybean” value with soybean (Glycine max) (setting [11]) is on record as 100; in the test on soybean (Glycine max) (setting [12]) it was 100; in the test on soybean (Glycine max) (setting [4]) it was 0; in the test on soybean (Glycine max) (setting [5]) it was 60; in the test with soybean (Glycine max) (setting [6]), 75; with soybean (Glycine max) (setting [7]), 90. For the same molecule, the “Nutsedge, Yellow plant response rating” value in test [2] (setting [10]) and in test [2] (setting [9]) was 0 each time. Also, the “Plant response rating, Nutsedge, Yellow” value in test [2] (setting [11]), in test [2] (setting [12]), in test [2] (setting [4]), in test [2] (setting [5]), in test [2] (setting [6]) and in test [2] (setting [7]) was 0 each time.
